Assay results published in patent publication US20250346599A1, “TRICYCLIC PHTHALAZINONE PARP INHIBITORS AND METHODS OF USE” (Valo Health, Inc., priority 2022, published 2025).
pIC50: −log10 of the molar value. Values joined by “and” are separate entries in the source; they are usually repeats but may differ in a detail not shown here. Equal values may be shown once.

Tests used:
[1] = molecular target: human MDR1 (P-glycoprotein; P-gp) (Homo sapiens (Human), UniProt P08183); test: bi-directional MDCK-MDR1 permeability assay; assay type: in vitro ADME
Excerpt: The bi-directional assay containing a Mandin Darby canine kidney (MDCK) cell line transfected with human MDR1 gene (P-glycoprotein; P-gp) designed to overexpress the MDR1 efflux transporter, a major efflux transporter at the blood brain barrier (BBB), uses an established method that measures the rate of flux of a compound across polarized cell monolayers. As well appreciated in the art, the data generated from the MDCK-MDR1 permeability assay may be used to predict in vivo absorption of drugs. The bi-directional MDCK-MDR1 permeability assay can identify and quantify levels of active efflux. Screening compounds in both the apical to basolateral direction (A→B) and basolateral to apical direction (B→A) across the cell monolayer provides a ratio of B→A/A→B (efflux ratio; “ER”). Unlike the Caco-2 assay, the MDCK-MDR1 assay is not subject to potential efflux interference by breast cancer resistance protein (BCRP). […] The data may further be used to predict blood brain barrier (BBB) permeability via calculation from the data of log(permeability-surface area product) (“log PS”), well-understood to be predictive of the in vivo log([brain concentration]/[plasma concentration]).

PARP1 enzyme = PARP1 enzyme (Homo sapiens (Human), UniProt P09874); test: PARP Mass Spectroscopy Assay (PARP1 enzymatic assay, nicotinamide detection); assay type: biochemical; conditions: 5 nM PARP1, 5 uM β-NAD, 60 min at RT, NAM by mass spectrometry
Excerpt: Materials and Reagents: The PARP1 enzyme was purchased from BPS Bioscience (cat #80501). Tris-HCl, pH 8.0 was purchased from Corning (cat #46-031-CM). Magnesium chloride was purchased from Thermo Fisher Scientific (previously Honeywell Fluka, cat #63020-1L). All other assay components, activated DNA (cat #D4522), core histones (cat #SRP6590), β-Nicotinamide adenine dinucleotide (β-NAD—cat #N8285), 3ABA PARP1 small molecule inhibitor (from the PARP1 Enzyme Activity Assay kit, cat #17-10149), Sodium Chloride (NaCl, cat #56546-1L), Triton X-100 (cat #93443), Dithiothreitol (DTT, cat #43816-250 ML) were all purchased from Millipore Sigma.
Assay Buffer: The assay buffer includes the following reagents: 50 mM Tris-HCl pH 8.0, 50 mM NaCl, 10 mM, MgCl2, 0.01% Triton X-100, and 1 mM DTT.
PARP1 enzymatic assays were performed in 384-well plates in a total volume of 20 μL in the assay buffer. For concentration response curves, compounds were serially diluted 3-fold from 2 mM highest concentration […] to generate a 10-point curve, and 125 nL was transferred to the assay plate using the Echo acoustic dispenser for a final concentration range of 26.6 μM to […] in 10 μL reaction. Five microliters of 10 nM PARP1 enzyme and 100 nM core histones (2×) mix were added to the assay plates and pre-incubated for 30 mins at room temperature (RT). The reaction was initiated by the addition of a 5 μL of 10 uM β-NAD plus 0.02 mg/mL activated DNA (2×) mix. The reaction is incubated for 60 min at RT. The final concentration of the PARP1 enzyme and substrate concentrations were 5 nM and 5 uM, respectively. The positive control (high signal) and negative control (low signal) wells had 125 nL of DMSO in place of compounds. After the incubation is complete, the reaction is stopped by the addition of 10 μL of 10 uM of the 3ABA PARP1 inhibitor, incubated for 5 min at RT, and placed in the −80 C freezer for shipment to the Valo Health site in Branford Connecticut where mass spectrometry will be used to directly detect quantities of nicotinamide (NAM).
The percent inhibition of enzyme activity was calculated according to the following equation: […]
The values of Ssample, Shigh, and Slow in the equation refer to the NAM concentration detected in the assay wells, high control wells, and low control wells, respectively. To determine inhibitor IC50 values, % inhibition of the CRCs (concentration response curves) was fitted to the standard single-site four-parameter logistic equation.

[2] = apical to basolateral direction

Sequence of PARP1 enzyme (P09874 whole entry): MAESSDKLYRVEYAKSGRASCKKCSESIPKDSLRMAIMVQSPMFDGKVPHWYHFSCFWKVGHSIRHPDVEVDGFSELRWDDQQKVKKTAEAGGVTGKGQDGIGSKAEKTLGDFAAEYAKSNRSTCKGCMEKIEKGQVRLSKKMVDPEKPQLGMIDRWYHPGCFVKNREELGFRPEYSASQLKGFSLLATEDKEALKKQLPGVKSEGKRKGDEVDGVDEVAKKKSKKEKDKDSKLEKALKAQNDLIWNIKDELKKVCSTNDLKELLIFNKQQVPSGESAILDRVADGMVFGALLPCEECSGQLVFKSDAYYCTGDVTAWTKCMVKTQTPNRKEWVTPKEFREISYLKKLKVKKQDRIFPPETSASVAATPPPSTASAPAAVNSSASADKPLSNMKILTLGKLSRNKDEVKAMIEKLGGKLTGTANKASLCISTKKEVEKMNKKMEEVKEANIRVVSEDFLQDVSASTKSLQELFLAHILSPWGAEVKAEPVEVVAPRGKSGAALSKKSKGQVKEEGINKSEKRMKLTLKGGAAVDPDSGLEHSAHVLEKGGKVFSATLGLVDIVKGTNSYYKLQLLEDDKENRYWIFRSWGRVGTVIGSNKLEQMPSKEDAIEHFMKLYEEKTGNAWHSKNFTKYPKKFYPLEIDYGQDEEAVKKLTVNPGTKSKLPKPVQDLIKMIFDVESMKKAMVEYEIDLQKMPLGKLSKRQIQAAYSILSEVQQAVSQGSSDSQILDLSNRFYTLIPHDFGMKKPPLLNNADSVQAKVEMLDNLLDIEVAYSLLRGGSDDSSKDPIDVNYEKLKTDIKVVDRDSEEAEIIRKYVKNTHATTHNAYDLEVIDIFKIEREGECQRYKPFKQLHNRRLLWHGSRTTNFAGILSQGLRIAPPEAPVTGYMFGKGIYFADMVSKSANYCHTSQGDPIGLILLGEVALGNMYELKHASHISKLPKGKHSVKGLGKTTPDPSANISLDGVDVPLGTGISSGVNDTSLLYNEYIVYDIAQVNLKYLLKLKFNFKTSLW
Sequence of human MDR1 (P-glycoprotein; P-gp) (P08183 whole entry): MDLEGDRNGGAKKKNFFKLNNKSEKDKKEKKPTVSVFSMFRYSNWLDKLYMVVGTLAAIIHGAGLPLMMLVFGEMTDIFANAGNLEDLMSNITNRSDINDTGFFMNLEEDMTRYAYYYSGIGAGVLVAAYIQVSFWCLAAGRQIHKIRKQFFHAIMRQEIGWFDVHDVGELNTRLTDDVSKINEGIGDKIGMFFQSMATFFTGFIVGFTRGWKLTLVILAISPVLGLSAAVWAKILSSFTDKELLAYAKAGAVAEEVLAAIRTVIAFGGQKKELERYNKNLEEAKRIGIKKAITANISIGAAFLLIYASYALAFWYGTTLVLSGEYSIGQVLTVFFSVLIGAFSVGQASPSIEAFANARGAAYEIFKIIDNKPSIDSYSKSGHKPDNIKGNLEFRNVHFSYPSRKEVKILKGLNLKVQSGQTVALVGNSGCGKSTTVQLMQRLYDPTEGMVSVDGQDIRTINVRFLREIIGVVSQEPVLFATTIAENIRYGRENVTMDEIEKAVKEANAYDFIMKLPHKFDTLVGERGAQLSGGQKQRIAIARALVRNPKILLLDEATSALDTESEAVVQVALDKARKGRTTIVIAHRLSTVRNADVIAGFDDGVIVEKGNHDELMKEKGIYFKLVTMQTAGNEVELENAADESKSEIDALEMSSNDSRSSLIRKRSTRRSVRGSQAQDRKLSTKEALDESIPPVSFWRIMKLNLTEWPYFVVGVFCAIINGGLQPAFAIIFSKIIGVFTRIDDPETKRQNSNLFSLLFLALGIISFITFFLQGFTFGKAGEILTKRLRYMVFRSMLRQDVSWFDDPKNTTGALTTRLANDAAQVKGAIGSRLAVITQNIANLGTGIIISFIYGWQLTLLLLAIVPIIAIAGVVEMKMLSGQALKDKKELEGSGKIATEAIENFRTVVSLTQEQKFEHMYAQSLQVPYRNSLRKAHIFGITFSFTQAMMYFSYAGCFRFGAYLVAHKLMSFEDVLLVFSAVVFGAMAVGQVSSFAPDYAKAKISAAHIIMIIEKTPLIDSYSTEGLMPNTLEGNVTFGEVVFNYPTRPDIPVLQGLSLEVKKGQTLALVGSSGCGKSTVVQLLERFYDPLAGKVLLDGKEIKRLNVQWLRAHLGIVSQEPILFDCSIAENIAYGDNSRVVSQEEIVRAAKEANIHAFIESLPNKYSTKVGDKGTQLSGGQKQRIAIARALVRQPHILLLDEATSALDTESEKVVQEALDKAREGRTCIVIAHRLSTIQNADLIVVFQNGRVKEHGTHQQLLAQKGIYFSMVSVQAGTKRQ

| SMILES | Papp A→B ([1]; dog, MDCK-MDR1, apical to basolateral direction) | efflux ratio ([1]; human, MDCK-MDR1, efflux ratio B→A/A→B, read-out: MDCK-MDR1 ER) | pIC50 (PARP1 enzyme) | MDCK-MDR1 Papp A→B (10^−6 cm/s) [1, 2] | MDCK-MDR1 ER ([1]; efflux ratio B→A/A→B) |
| --- | --- | --- | --- | --- | --- |
| CN1CCC([C@H]2Nc3cc(F)cc4c(=O)[nH]nc(c34)[C@H]2c2ccc(F)cc2F)CC1 [Compound 0110B, (8R,9S)-9-(2,4-difluorophenyl)-5-fluoro-8-(1-methylpiperidin-4-yl)-2,7,8,9-tetrahydro-3H-pyrido[4,3,2-de]phthalazin-3-one] | 0.498 ×10⁻⁶ cm/s | 30.4 | 7.35 | – | – |
| C[C@H]1Nc2cc(F)cc3c(=O)[nH]nc(c23)[C@@H]1c1ccc(C#N)cc1F [Compound 0194A] | – | – | 8.70 | 6.96 10^−6 cm/s | 2.22 |
| CC[C@@H]1Nc2cc(F)cc3c(=O)[nH]nc(c23)[C@H]1c1ccccc1Cl [Compound 0206A, (11S,12S)-12-(2-chlorophenyl)-11-ethyl-7-fluoro-2,3,10-triazatricyclo[7.3.1.0^{5,13}]trideca-1,5(13),6,8-tetraen-4-one] | – | – | 8.05 | 13.4 10^−6 cm/s | 0.695 |
| O=c1[nH]nc2c3c(cc(F)cc13)NC[C@@H]2c1ccc(Cl)cc1F [Compound 0189B] | – | – | 7.54 | 15.6 10^−6 cm/s | 0.538 |
| O=c1[nH]nc2c3c(cc(F)cc13)N[C@@H](C1CCN(C3CCC(F)(F)CC3)CC1)[C@@H]2c1ccc(Cl)cc1F [Compound 0256A] | – | – | – | 5.76 10^−6 cm/s | 3.37 |
| O=c1[nH]nc2c3c(cc(F)cc13)N[C@H]([C@H]1CCOC1)[C@H]2c1ccccc1Cl [Compound 0121A] | – | – | 7.49 | 5.66 10^−6 cm/s | 3.06 |
| CC(C)[C@H]1Nc2cc(F)cc3c(=O)[nH]nc(c23)[C@H]1c1ccccc1Cl [Compound 0222B] | – | – | 7.74 | 9.59 10^−6 cm/s | 0.92 |
| CC[C@@H]1Nc2cc(F)cc3c(=O)[nH]nc(c23)[C@H]1c1ncnn1C [Compound 0202B] | – | – | – | 0.77 10^−6 cm/s | 28.5 |
| O=c1[nH]nc2c3c(cc(F)cc13)N[C@H]([C@H]1CCOC1)[C@H]2c1ccc(F)cc1F [Compound 0115A] | – | – | 8.00 | 8.3 10^−6 cm/s | 1.73 |
| N#Cc1ccc([C@H]2CNc3cc(F)cc4c(=O)[nH]nc2c34)c(F)c1 [Compound 0187B] | – | – | 7.39 | 8.56 10^−6 cm/s | 1.67 |
| Cn1ncnc1[C@H]1CNc2cc(F)cc3c(=O)[nH]nc1c23 [Compound 0200B] | – | – | – | 1.2 10^−6 cm/s | 12.3 |
| O=c1[nH]nc2c3c(cc(F)cc13)N[C@@H](C1CC1)[C@@H]2c1ccccc1Cl [Compound 0207A, (11S,12S)-12-(2-chlorophenyl)-11-cyclopropyl-7-fluoro-2,3,10-triazatricyclo[7.3.1.0^{5,13}]trideca-1,5(13),6,8-tetraen-4-one] | – | – | 7.19 | 9.65 10^−6 cm/s | 0.741 |
| O=c1[nH]nc2c3c(cc(F)cc13)NCC2c1ccc(Cl)cc1F (stereo not shown) [Compound 0189-6] | – | – | 7.39 | 10.6 10^−6 cm/s | 0.59 |
| O=c1[nH]nc2c3c(cc(F)cc13)N[C@@H]([C@@H]1CCOC1)[C@@H]2c1ccc(F)cc1F [Compound 0115D] | – | – | – | 4.94 10^−6 cm/s | 4.28 |
| CC(=O)N1CCC([C@@H]2Nc3cc(F)cc4c(=O)[nH]nc(c34)[C@H]2c2ncnn2C)CC1 [Compound 0218B] | – | – | – | 0.335 10^−6 cm/s | 3.98 |
| Cn1ncnc1[C@@H]1c2n[nH]c(=O)c3cc(F)cc(c23)N[C@H]1C1CC1 [Compound 0203B] | – | – | – | 0.568 10^−6 cm/s | 21.7 |
| COCCN1CCC(C2Nc3cc(F)cc4c(=O)[nH]nc(c34)C2c2ccccc2Cl)C1 (stereo not shown) [Compound 0117-8, 12-(2-chlorophenyl)-7-fluoro-11-[1-(2-methoxyethyl)pyrrolidin-3-yl]-2,3,10-triazatricyclo[7.3.1.0^{5,13}]trideca-1,5(13),6,8-tetraen-4-one] | – | – | 6.25 | – | – |
| COCCN1CCC(C2Nc3cc(F)cc4c(=O)[nH]nc(c34)C2c2ccc(F)cc2F)C1 (stereo not shown) [Compound 0111-6, 12-(2,4-difluorophenyl)-7-fluoro-11-[1-(2-methoxyethyl)pyrrolidin-3-yl]-2,3,10-triazatricyclo[7.3.1.0^{5,13}]trideca-1,5(13),6,8-tetraen-4-one] | – | – | 6.79 | – | – |

| SMILES | Papp A→B ([1]; dog, MDCK-MDR1, apical to basolateral direction) | efflux ratio ([1]; human, MDCK-MDR1, efflux ratio B→A/A→B, read-out: MDCK-MDR1 ER) | pIC50 (PARP1 enzyme) | MDCK-MDR1 Papp A→B (10^−6 cm/s) [1, 2] | MDCK-MDR1 ER ([1]; efflux ratio B→A/A→B) |
| --- | --- | --- | --- | --- | --- |
| CN1CCC([C@H]2Nc3cc(F)cc4c(=O)[nH]nc(c34)[C@@H]2c2ccccc2Cl)CC1 [Compound 0116A, (8R,9R)-9-(2-chlorophenyl)-5-fluoro-8-(1-methylpiperidin-4-yl)-2,7,8,9-tetrahydro-3H-pyrido[4,3,2-de]phthalazin-3-one] | – | – | 5.28 | – | – |
| CN1CCC[C@H]([C@H]2CNc3cc(F)cc4c(=O)[nH]nc2c34)C1 [Compound 0191B] | – | – | 7.43 | – | – |
| O=c1[nH]nc2c3c(cc(F)cc13)NC[C@H]2c1ccc(F)cc1F [Compound 0114A, (R)-9-(2,4-difluorophenyl)-5-fluoro-2,7,8,9-tetrahydro-3H-pyrido[4,3,2-de]phthalazin-3-one] | – | – | 6.57 | – | – |
| O=c1[nH]nc2c3c(cc(F)cc13)NC(COCc1ccccc1)C2c1ccc(F)cc1F (stereo not shown) [Compound 0267-4] | – | – | 7.89 | – | – |
| C[C@@H]1Nc2cc(F)cc3c(=O)[nH]nc(c23)[C@H]1c1ncnn1C [Compound 0201B] | – | – | – | 0.567 10^−6 cm/s | 24.7 |
| C[C@@H]1Nc2cc(F)cc3c(=O)[nH]nc(c23)[C@H]1c1ccccc1Cl [Compound 0172B, (8S,9S)-9-(2-chlorophenyl)-5-fluoro-8-methyl-2,7,8,9-tetrahydro-3H-pyrido[4,3,2-de]phthalazin-3-one] | – | – | 7.74 | – | – |
| O=c1[nH]nc2c3c(cc(F)cc13)N[C@H](C1(F)CC1)[C@H]2c1ccccc1Cl [Compound 0260A] | – | – | 8.70 | – | – |
| O=c1[nH]nc2c3c(cc(F)cc13)N[C@@H](C1CCN(C3CCC(F)(F)CC3)CC1)[C@@H]2c1ccc(F)cc1F [Compound 0271B] | – | – | 8.15 | – | – |
| Cn1ncnc1[C@H]1c2n[nH]c(=O)c3cc(F)cc(c23)N[C@@H]1C1CCC(F)(F)CC1 [Compound 0215A] | – | – | – | 0.373 10^−6 cm/s | 33.3 |
| CC1Nc2cc(F)cc3c(=O)[nH]nc(c23)C1C1CCCN(C)C1 (stereo not shown) [Compound 0198-5] | – | – | 6.61 | – | – |
| CN1CCC[C@H]([C@@H]2CNc3cc(F)cc4c(=O)[nH]nc2c34)C1 [Compound 0191C] | – | – | 7.30 | – | – |
| Cn1ncnc1[C@@H]1c2n[nH]c(=O)c3cc(F)cc(c23)N[C@H]1C1CCN(C2CCC(F)(F)CC2)CC1 [Compound 0266A] | – | – | 5.77 | – | – |
| O=c1[nH]nc2c3c(cc(F)cc13)NC(C1CCCN1)C2c1ccccc1Cl (stereo not shown) [Compound 0181-6] | – | – | 5.92 | – | – |
| O=c1[nH]nc2c3c(cc(F)cc13)NC(C1(F)CC1)[C@H]2c1ccccc1Cl (stereo partly shown) [Compound 0260B] | – | – | 6.97 | – | – |
| CC(C)(C)C[C@H]1Nc2cc(F)cc3c(=O)[nH]nc(c23)[C@@H]1c1c(F)cc(F)cc1F [Compound 0219A] | – | – | 6.29 | – | – |
| N#Cc1ccc([C@@H]2CNc3cc(F)cc4c(=O)[nH]nc2c34)cc1F [Compound 0186A] | – | – | 6.61 | – | – |
| O=c1[nH]nc2c3c(cc(F)cc13)NC(C1CCC(F)(F)CC1)C2c1c(F)cc(F)cc1F (stereo not shown) [Compound 0212A] | – | – | 7.82 and 7.70 | – | – |
| O=c1[nH]nc2c3c(cc(F)cc13)NC(C1(F)CC1)[C@H]2c1ccc(Cl)cc1F (stereo partly shown) [Compound 0255B] | – | – | 6.99 | – | – |
